Measured values: paper PMC8942522 (Journal of Enzyme Inhibition and Medicinal Chemistry, 2022)
Values joined by “and” are separate entries in the source; they are usually repeats but may differ in a detail not shown here. Equal values may be shown once. Read-outs that look alike come from different tables or passages of the source.

How the values were obtained:
[1] = tested on: intracellular amastigotes of T. cruzi; assay: Intracellular T. cruzi in U-2 OS cells; assay type: cell-based, T. cruzi (strain Y); conditions: for selectivity index [SI vs. THP-1], T. cruzi: CC50 THP-1 / EC50 T. cruzi; for selectivity index [SI vs. U-2 OS], T. cruzi: CC50 U-2 OS / EC50 T. cruzi; for EC50: read-out: Cytotoxicity EC50 T. cruzi, intracellular amastigotes in U-2 OS, 72 h
[2] = tested on: intracellular amastigotes of L. donovani; assay: Intracellular L. donovani in THP-1 cells; conditions: for selectivity index [SI vs. THP-1], L. donovani: CC50 THP-1 / EC50 L. donovani
[3] = molecular target: T1, TcTryS (Trypanosoma cruzi, UniProt Q9GT49); assay: TryS inhibition assay; assay type: biochemical; conditions: for % TryS inhibition at 25 μM, T. cruzi: mean ± SD, NA = not active (inhibition ≤ 0.0 ± 5.0%); for IC50: IC50 T. cruzi TryS, 1 h pre-incubation, DRC, values italic and bold in Table 1
T1 sequence (Q9GT49 1-647): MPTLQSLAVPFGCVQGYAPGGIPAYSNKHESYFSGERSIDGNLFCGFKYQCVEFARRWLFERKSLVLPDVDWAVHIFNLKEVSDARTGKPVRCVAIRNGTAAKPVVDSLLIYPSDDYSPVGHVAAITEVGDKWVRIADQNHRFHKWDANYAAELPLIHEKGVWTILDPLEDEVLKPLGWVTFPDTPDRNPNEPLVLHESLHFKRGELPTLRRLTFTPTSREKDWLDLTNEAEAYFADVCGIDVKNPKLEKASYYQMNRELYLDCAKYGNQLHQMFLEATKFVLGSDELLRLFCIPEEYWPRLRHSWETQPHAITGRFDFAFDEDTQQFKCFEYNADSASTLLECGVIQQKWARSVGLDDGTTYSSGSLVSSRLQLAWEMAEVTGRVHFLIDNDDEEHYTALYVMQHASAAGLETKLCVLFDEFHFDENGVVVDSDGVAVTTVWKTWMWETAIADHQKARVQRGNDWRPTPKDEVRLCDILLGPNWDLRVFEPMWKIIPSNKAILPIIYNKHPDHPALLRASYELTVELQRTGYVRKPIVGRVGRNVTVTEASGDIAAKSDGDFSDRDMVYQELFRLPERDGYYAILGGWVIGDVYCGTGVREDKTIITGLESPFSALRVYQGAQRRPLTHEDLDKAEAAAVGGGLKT

[4] = tested on: bloodstream T. brucei; assay: Cytotoxicity against bloodstream T. brucei; assay type: cell-based, T. brucei (strain 427, cell line 449); conditions: CC50 THP-1 / EC50 T. brucei
[5] = tested on: redox biosensor hGrx1-roGFP2 in bloodstream T. b. brucei; assay: Redox assay with hGrx1-roGFP2 reporter cell line; assay type: cell-based, T. brucei brucei (strain 427, cell line 449)
[6] = tested on: TbTryS; assay: Time-dependent inhibition assay; assay type: biochemical, Trypanosoma brucei; conditions: n = 6
[7] = tested on: TbTryS; assay: Dilution and reduction-based; assay type: biochemical, Trypanosoma brucei; conditions: Ebselen 10 µM 1 h, n = 6
[8] = tested on: TbTryS; assay type: biochemical, Trypanosoma brucei; conditions: 1 h, n = 8; for TryS inhibition ± SD, mass spectrometry sample B: IAM 15 mM, no Ebselen
[9] = molecular target: T2, LiTryS (Leishmania infantum, UniProt A4I2Z3); assay: TryS inhibition assay; assay type: biochemical; conditions: mean ± SD, NA = not active (inhibition ≤ 0.0 ± 5.0%)
T2 sequence (A4I2Z3 1-652): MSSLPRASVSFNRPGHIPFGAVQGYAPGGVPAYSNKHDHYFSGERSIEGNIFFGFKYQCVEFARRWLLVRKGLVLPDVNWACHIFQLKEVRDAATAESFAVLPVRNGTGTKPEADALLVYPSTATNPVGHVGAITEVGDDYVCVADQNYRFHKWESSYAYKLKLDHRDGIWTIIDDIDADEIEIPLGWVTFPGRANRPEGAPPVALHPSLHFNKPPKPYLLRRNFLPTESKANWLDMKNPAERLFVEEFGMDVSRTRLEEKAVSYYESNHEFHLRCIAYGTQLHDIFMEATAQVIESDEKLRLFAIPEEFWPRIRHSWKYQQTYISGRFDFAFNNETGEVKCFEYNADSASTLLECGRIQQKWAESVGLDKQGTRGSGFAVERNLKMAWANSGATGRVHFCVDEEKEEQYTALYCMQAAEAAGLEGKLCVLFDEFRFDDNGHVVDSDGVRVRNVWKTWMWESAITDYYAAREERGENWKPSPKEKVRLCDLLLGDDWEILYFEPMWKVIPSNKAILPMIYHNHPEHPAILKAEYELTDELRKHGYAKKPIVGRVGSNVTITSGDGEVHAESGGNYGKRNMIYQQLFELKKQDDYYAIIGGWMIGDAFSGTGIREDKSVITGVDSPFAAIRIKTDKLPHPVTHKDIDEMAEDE

[10] = molecular target: T3, TryS from Trypanosoma brucei (TbTryS) (Trypanosoma brucei brucei, UniProt Q586P2); assay: TryS inhibition assay; assay type: biochemical; conditions: mean ± SD, NA = not active (inhibition ≤ 0.0 ± 5.0%)
T3 sequence (Q586P2 1-627): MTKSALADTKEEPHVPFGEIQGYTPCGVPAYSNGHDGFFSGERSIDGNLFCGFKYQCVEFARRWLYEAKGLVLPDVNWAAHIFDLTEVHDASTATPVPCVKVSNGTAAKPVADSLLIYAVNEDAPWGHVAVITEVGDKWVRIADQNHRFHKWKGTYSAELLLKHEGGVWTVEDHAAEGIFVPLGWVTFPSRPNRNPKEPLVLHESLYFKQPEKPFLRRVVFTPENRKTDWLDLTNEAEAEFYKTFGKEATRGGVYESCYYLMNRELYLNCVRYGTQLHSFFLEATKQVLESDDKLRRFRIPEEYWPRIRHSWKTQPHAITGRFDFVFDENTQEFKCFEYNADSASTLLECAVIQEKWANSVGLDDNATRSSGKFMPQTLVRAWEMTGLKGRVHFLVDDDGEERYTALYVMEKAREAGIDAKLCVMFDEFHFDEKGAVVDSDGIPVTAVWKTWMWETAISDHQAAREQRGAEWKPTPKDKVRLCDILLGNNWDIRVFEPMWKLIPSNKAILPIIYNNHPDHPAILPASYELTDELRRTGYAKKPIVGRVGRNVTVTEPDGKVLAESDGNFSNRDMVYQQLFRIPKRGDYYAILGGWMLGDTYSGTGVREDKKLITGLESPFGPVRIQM

SMILES: NC(Cc1cc(O)c(O)cc1O)C(=O)O (racemic) [Compound 3, 6-Hydroxy-DL-DOPA]
- selectivity index [SI vs. THP-1], T. cruzi [1]: > 2.7
- selectivity index [SI vs. U-2 OS], T. cruzi [1]: 2.7
- EC50 [1]: 34 µM and ~34 µM

SMILES: C[C@@H]1[C@H](O)[C@@H](C)/C=C/C=C/C=C/C=C/C=C/C=C/C=C/[C@H](O[C@@H]2O[C@H](C)[C@@H](O)[C@H](N)[C@@H]2O)C[C@@H]2O[C@](O)(C[C@@H](O)C[C@@H](O)[C@H](O)CC[C@@H](O)C[C@@H](O)CC(=O)O[C@H]1C)C[C@H](O)[C@H]2C(=O)O [Amphotericin B]
- selectivity index [SI vs. THP-1], L. donovani [2]: > 22

SMILES: O=C(Cn1ccnc1[N+](=O)[O-])NCc1ccccc1 [Benznidazole]
- EC100 ([1]; reference drug concentration used in T. cruzi assay): 400 µM

SMILES: O=C(O)C1=CC(=C(c2ccc(O)c(C(=O)O)c2)c2ccc(O)c(C(=O)O)c2)C=CC1=O [Compound 1, Aurintricarboxylic acid]
- inhibition at 25 µM ([3]; read-out: % TryS inhibition at 25 μM, T. cruzi): 5.5 ± 2.8%

SMILES: O=C(O)c1cc[c]([Hg][Cl])cc1 [Compound 2, 4-Chloromercuribenzoic acid]
- % TryS inhibition at 25 μM, T. cruzi [3]: 32.0 ± 9.7%

SMILES: O=c1c2ccccc2[se]n1-c1ccccc1 [Compound 5, Ebselen]
- IC50 [3]: 13.8 ± 1.5 µM
- selectivity index [SI vs. THP-1], T. brucei [4]: 11
- selectivity index [SI vs. THP-1], T. cruzi [1]: > 36
- selectivity index [SI vs. U-2 OS], T. cruzi [1]: 2.4
- EC50 [1]: 2.8 ± 0.1 µM
- oxidation of the biosensor ([5]; 18 µM (2-fold its EC50), 4 h, reverted by DTT 1 mM 20 min): 48%
- TryS inhibition ± SD, time-dependent assay, sample A ([6]; Ebselen 5 µM pre-incubated 1 h with TbTryS, reaction started with MM): 43.6 ± 4.5%
- TryS inhibition ± SD, time-dependent assay, sample C ([6]; Ebselen 5 µM, no pre-incubation): 1.8 ± 4.2%
- TryS inhibition ± SD, irreversible inhibition assay, sample A ([7]; buffer exchanged, DTT 5 mM 30 min): 89 ± 8.5%
- TryS inhibition ± SD, irreversible inhibition assay, sample B ([7]; buffer exchanged, no DTT): 97.0 ± 5.0%
- TryS inhibition ± SD, irreversible inhibition assay, sample C ([7]; no buffer exchange, no DTT): 100 ± 9%
- TryS inhibition ± SD, mass spectrometry sample A ([8]; Ebselen 20 µM): 100 ± 7%
- TryS inhibition ± SD, mass spectrometry sample A (value in parenthesis) ([8]; Ebselen 50 µM): 96 ± 8%
- EC50 ([2]; Leishmania donovani, THP-1, 96 h, read-out: Cytotoxicity EC50 L. donovani): > 100 µM

SMILES: C[n+]1cc2c3c(ccc2c2ccc4cc5c(cc4c21)OCO5)OCO3 [Compound 6, Sanguinarine chloride]
- IC50 [3]: 40 ± 1.2 µM
- selectivity index [SI vs. THP-1], T. cruzi [1]: 9.5
- selectivity index [SI vs. U-2 OS], T. cruzi [1]: 1.3
- EC50 [1]: 0.37 ± 0.11 µM
- selectivity index [SI vs. THP-1], L. donovani [2]: 2

SMILES: Clc1ccc(C(c2ccc(Cl)cc2)n2cc[n+](CC(OCc3ccc(Cl)cc3Cl)c3ccc(Cl)cc3Cl)c2)cc1 (stereo not shown) [Compound 7, Calmidazolium chloride]
- IC50 [3]: 2.7 ± 0.5 µM
- selectivity index [SI vs. U-2 OS], T. cruzi [1]: 1.1
- EC50 [1]: 1.6 ± 0.1 µM
- effect on parasites at 2× EC50 in redox assay ([5]; 2× EC50, 4 h): massive cell death

SMILES: N=C1Sc2ccccc2C2=NCCCN12 [Compound 9, PD 404,182]
- % TryS inhibition at 25 μM, T. cruzi [3]: 10.9 ± 5.6%
- % TryS inhibition at 25 μM, L. infantum [9]: 8.9 ± 5.9%

SMILES: Cl.Nc1nc(NCC2CCC(CNS(=O)(=O)c3cccc4ccccc34)CC2)nc2ccccc12 (stereo not shown) [Compound 11, CGP 71683 hydrochloride]
- % TryS inhibition at 25 μM, T. brucei [10]: 14.4 ± 8.2%
- % TryS inhibition at 25 μM, T. cruzi [3]: 34.7 ± 7.6%
- selectivity index [SI vs. THP-1], L. donovani [2]: 1.1

SMILES: CCCC[P+](CCCC)(CCCC)Cc1ccc(NC(=O)[C@H](Cc2ccc3ccccc3c2)NC(=NC2CCCCC2)NC2CCCCC2)cc1.Cl.[Cl-] [Compound 13, WIN 64338 hydrochloride]
- % TryS inhibition at 25 μM, T. brucei [10]: 9.2 ± 7.4%
- % TryS inhibition at 25 μM, T. cruzi [3]: 25.9 ± 6.5%
- % TryS inhibition at 25 μM, L. infantum [9]: 70.9 ± 6.8%
- selectivity index [SI vs. THP-1], L. donovani [2]: 1.9

SMILES: O=C(CCc1c(-c2ccc(F)cc2)[nH]c2ccc(F)cc12)N1CCN(c2ccncc2)CC1 [Compound 14]
- % TryS inhibition at 25 μM, T. cruzi [3]: 7.1 ± 4.0%
- % TryS inhibition at 25 μM, L. infantum [9]: 16.8 ± 17.9%
- selectivity index [SI vs. THP-1], T. brucei [4]: 11

SMILES: Cc1nc(C(=O)N2CCCC2c2ccc(F)c(F)c2)c(=O)[nH]c1C (stereo not shown) [Compound 18]
- % TryS inhibition at 25 μM, L. infantum [9]: 28.5 ± 11.1%

SMILES: CCN(CC)C(=O)COC(=O)c1c(NC(C)=O)sc2c1CCCC2 [Compound 19]
- % TryS inhibition at 25 μM, T. cruzi [3]: 13.3 ± 3.3%
- selectivity index [SI vs. THP-1], T. brucei [4]: > 4

SMILES: O=C1Cc2cc(-c3csc(NCCc4cccs4)n3)cc3c2N1CCC3 [Compound 22]
- % TryS inhibition at 25 μM, T. cruzi [3]: 12.9 ± 6.1%
- % TryS inhibition at 25 μM, L. infantum ([9]; listed as 46, 25 µM): 74%

SMILES: NC(=O)CI [IAM, iodoacetamide]
- TryS inhibition ± SD, mass spectrometry sample B [8]: 20 ± 9%
- TryS inhibition ± SD, mass spectrometry sample B ([8]; listed as iodoacetamide): negligible effects on TryS activity
